How the values were obtained:
3′GT = target: T1, 3′GT (Gentiana triflora, UniProt Q8H0F2); test: Analysis of substrate specificity of purified 3′GT expressed in Escherichia coli (glucose transfer from UDP-glucose, HPLC); format: biochemical, gentian; details: compound used as substrate; for relative activity: activity to delphinidin 3,5-glucoside assumed to be 100%; for 3′GT activity to substrate (qualitative): purified sample of 3′GT from E. coli
T1 construct: the region from the initiation methionine to poly A of pG3′GT7 was inserted in the NcoI/KpnI site of E. coli expression vector pQE61; made in house; host or cells: Escherichia coli JM105 (vector pQE61, plasmid pG3′Q1)
T1 sequence (Q8H0F2 1-482): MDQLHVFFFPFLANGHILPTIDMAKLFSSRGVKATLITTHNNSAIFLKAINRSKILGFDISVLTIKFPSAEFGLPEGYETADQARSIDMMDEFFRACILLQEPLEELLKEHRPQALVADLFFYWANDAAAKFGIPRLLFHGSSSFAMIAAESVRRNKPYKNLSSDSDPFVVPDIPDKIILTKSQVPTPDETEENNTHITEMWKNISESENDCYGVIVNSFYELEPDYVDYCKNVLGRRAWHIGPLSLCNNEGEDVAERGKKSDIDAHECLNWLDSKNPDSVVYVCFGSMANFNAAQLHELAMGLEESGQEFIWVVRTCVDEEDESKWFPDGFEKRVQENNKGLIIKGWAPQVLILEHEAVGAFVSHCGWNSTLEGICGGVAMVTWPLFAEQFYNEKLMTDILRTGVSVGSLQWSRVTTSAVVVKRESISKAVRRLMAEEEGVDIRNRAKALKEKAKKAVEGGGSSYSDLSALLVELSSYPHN
Description: (§1) 20 μl of the crude enzyme extract solution, 10 μl of 0.5M potassium phosphate (pH 8.5), 10 μl of 5 mM UDP-glucose, 10 μl of delphinidin 3,5-diglucoside (1.5 mg/ml) were mixed and maintained at 30° C. for 10 minutes. Then, following the procedure of Fujiwara et al. (Fujiwara et al. Plant J. (1998)), reaction was terminated, and the reaction product was analyzed using high performance liquid chromatography (HPLC). As a result, it was determined that gentian flower petals contain an enzyme having activity to transfer a glycosyl group to the 3′-position of an anthocyanin.
Using the PCR method, an NcoI site was introduced so as to coincide with the initiation methionine codon of pG3′GT7, and the region from the initiation methionine to poly A of pG3′GT7 was inserted in the NcoI/KpnI site of E. coli expression vector pQE61 (QIAGEN). The obtained E. coli expression vector was denoted by pG3′Q1. pG3′Q1 was introduced into the Escherichia coli JM105 strain, and after preculturing overnight at 37° C., a part of the precultured medium was innoculated into 8 L of a main culture medium, and was cultured at 27° C. until OD600=0.6. To induce expression of the 3′GT gene, IPTG was added so as to reach a final concentration of 0.4 mM, and was cultured overnight at 27° C. After cells were collected, washed, and suspended in 400 ml of crushing buffer (25 mM Tris-HCl (pH 7.5), 250 mM NaCl, 1 mM EDTA, 0.5% β-mercaptoethanol), the cells were disrupted by ultrasonic treatment. After centrifuging, the resultant supernatant was subjected to processing with DE52, and a 40–70% ammonium sulfate precipitate fraction was recovered. After desalting, the crude protein solution was loaded onto a DEAE-TOYOPEARL (Toso Co.) preequilibrated with buffer C (25 mM Tris-HCl (pH 7.5), 0.5% β-mercaptoethanol), and was eluted with buffer C containing 0–0.5 M NaCl. The active fraction was recovered, adsorbed to BlueA (Amicon Co.) equilibrated buffer C, and was eluted with a linear gradient formed with the buffer C and the buffer C containing 2 M NaCl. The obtained active fraction was used in the reaction, to be described later, as a purified sample of the 3′GT portion.
Using the purified sample of the 3′GT portion obtained in Example 6, the substrate-specificity of the 3′GT was analyzed. […] Assuming the relative activity to delphinidin 3,5-glucoside to be 100%, the activity to delphinidin 3-glucosyl-5-caffeoylglucoside is about 50%. Trace amount of products (1% or less) were also observed using delphinidin or delphinidin 3-diglucoside as a substrate. From retention time of HPLC and the absorption spectrum, the reaction product is considered to be a substrate having a glycosyl group added to the 3′-position thereof.

[1] = target: T2, protein which has activity to transfer a glycosyl group to the 3′-position of anthocyanins (Gentiana triflora, UniProt Q8H0F2); test: Enzyme activity of extract from yeast transformed with pYG3′GT7 (measured as in Example 1, HPLC); format: biochemical, gentian; details: compound used as substrate
T2 construct: A DNA fragment of approximately 1.6 kbp, which was obtained by digestion of pG3′GT7 with XhoI, was recovered; made in house; extract after glass-bead disruption
T2 sequence (Q8H0F2 1-482): T1 sequence (Q8H0F2 1-482)
Description: as §1
A DNA fragment of approximately 1.6 kbp, which was obtained by digestion of pG3′GT7 with XhoI, was recovered. This DNA was ligated to a DNA fragment obtained by digesting pYE22m with SaII, and the obtained plasmid that has the initiation codon nearer to the promotor on pYE22m was denoted by pYG3′GT7. pYE22m was constructed according to the method as set forth in Japanese Patent Publication No. 4-228078. This plasmid was introduced into yeast cells to obtain transformed yeast cells. After the yeast cells were cultured and disrupted with glass beads, enzyme activity was measured as in Example 1 using delphinidin 3,5-diglucoside as substrate.
No activity was found in the yeast in which the plasmid was not introduced. When cyanidin 3,5-diglucoside was used as substrate, no new peak was produced.

| Molecule | relative activity (3′GT) | 3′GT activity to substrate (qualitative) (3′GT) | activity for adding a glycosyl group to substrate (qualitative) [1] |
| --- | --- | --- | --- |
| OC[C@H]1O[C@@H](Oc2cc3c(O[C@@H]4O[C@H](CO)[C@@H](O)[C@H](O)[C@H]4O)cc(O)cc3[o+]c2-c2cc(O)c(O)c(O)c2)[C@H](O)[C@@H](O)[C@@H]1O [delphinidin 3,5-diglucoside] | 100% | exhibits activity | exhibits activity |
| OC[C@H]1O[C@@H](Oc2cc3c(O[C@@H]4O[C@H](CO)[C@@H](O)[C@H](O)[C@H]4O)cc(O)cc3[o+]c2-c2ccc(O)c(O)c2)[C@H](O)[C@@H](O)[C@@H]1O [cyanidin 3,5-diglucoside] |  | not | exhibits no activity |
| delphinidin 3-glucosyl-5-caffeoylglucoside | about 50% | exhibits activity |  |
